Key:
[1] = system: poly rA–poly rU (RNA, polymer) A/U; test: UV thermal melting, 260 nm; settings: Na+ (sodium cacodylate, Ic = 0.05 mol dm^-3); Na cacodylate pH 7.0; negligible stabilisation; error ±0.5 °C; per base
[2] = system: poly dGdC–poly dGdC (DNA, polymer) GC; test: fluorimetric titration, Scatchard/Global Fit; settings: Na+ (sodium cacodylate, Ic = 0.05 mol dm^-3); Na cacodylate pH 7.0; compound 1–2 × 10^-6 M; n fixed 0.2; polynucleotide as phosphates; per base
[3] = molecular target: T1, human DPP III (dipeptidyl peptidase III, DPPIII), inactive mutant E451A (Homo sapiens, UniProt Q9NY33, E451A); test: isothermal titration calorimetry, one set of sites, N fixed to […]; type: binding; settings: read-out: log Ka (converted)
T1 construct: gene DPP3; recombinant, heterologous expression in Escherichia coli, purified according to Spoljaric et al; mono-zinc metalloexopeptidase
T1 sequence (Q9NY33 2-737 E451A): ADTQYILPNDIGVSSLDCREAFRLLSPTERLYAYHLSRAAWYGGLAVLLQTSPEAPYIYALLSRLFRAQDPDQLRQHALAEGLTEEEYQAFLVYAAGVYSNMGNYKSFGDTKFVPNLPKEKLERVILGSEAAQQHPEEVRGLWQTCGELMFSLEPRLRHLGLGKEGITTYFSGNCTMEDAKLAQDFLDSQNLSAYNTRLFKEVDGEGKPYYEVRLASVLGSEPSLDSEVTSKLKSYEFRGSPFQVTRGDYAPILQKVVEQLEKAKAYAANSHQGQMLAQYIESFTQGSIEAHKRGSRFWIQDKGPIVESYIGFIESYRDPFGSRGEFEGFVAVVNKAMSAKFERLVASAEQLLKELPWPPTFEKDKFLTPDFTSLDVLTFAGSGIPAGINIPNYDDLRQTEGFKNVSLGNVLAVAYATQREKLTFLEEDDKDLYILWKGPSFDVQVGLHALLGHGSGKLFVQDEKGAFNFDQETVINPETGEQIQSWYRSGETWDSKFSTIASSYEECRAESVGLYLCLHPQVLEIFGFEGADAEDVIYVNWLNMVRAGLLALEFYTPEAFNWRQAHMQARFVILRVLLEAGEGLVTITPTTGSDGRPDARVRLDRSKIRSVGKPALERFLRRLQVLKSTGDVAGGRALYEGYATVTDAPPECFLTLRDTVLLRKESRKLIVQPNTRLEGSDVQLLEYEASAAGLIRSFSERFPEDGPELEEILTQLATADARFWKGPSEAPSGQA

[4] = system: poly rA–poly rU (RNA, polymer) A/U; test: fluorimetric titration, Scatchard/Global Fit; settings: Na+ (sodium cacodylate, Ic = 0.05 mol dm^-3); Na cacodylate pH 7.0; compound 1–2 × 10^-6 M; n fixed 0.2; polynucleotide as phosphates; per base
[5] = system: poly dAdT–poly dAdT (DNA, polymer) AT; test: fluorimetric titration, Scatchard/Global Fit; settings: Na+ (sodium cacodylate, Ic = 0.05 mol dm^-3); Na cacodylate pH 7.0; compound 1–2 × 10^-6 M; n fixed 0.2; polynucleotide as phosphates; per base

SMILES	ΔTm [1]	log Ka [2]	Kd [3]	log Ka [4]	log Ka [5]
COC(=O)[C@H](Cc1ccc2c(c1)c(C)nc1ccccc12)NC(=O)c1ccc2ccc3cccc4ccc1c2c34	< 0.5 °C				
COC(=O)[C@H](Cc1ccc2c(c1)c(C)nc1ccccc12)NC(=O)CCCc1ccc2ccc3cccc4ccc1c2c34 [Phen-Py-1]	< 0.5 °C	6.87	3.39 µM	7.07	5.97
